Test results taken from PubChem BioAssay AID624374 (Broad Institute, 2012).
Records with an inconclusive call do not appear. Active and inactive are the calls of the source. No rule for the calls is given here.

Assays:
[1] = system: HEK293 viability counterscreen, plate reader; experiment: cytotoxicity in HEK293 background cells – cell-based, dry powder, set 2, counter-screen for EBV LMP1 inhibitor project, dose response (AID 624374)
[2] = as above; conditions: HEK293 viability counterscreen, plate reader

With O=C(C[C@H]1C[C@@H]2c3cc(NS(=O)(=O)c4ccc(F)cc4)ccc3O[C@@H]2[C@@H](CO)O1)NCc1ccc(Oc2ccccc2)cc1 the AC35 [1] was 23.1 µM.
For O=C(C[C@@H]1C[C@@H]2c3cc(NC(=O)c4ccc5c(c4)OCO5)ccc3O[C@@H]2[C@@H](CO)O1)NCc1ccc(Oc2ccccc2)cc1, the AC35 [1] was 33.8 µM.
With COc1ccccc1CNC(=O)C[C@@H]1C[C@H]2c3cc(NC(=O)c4ccc5c(c4)OCO5)ccc3O[C@H]2[C@H](CO)O1 the AC35 [1] was > 35 µM (inactive).
For C[C@H](CO)N1C[C@H](C)[C@@H](CN(C)Cc2ccc(C(F)(F)F)cc2)Oc2ccc(NC(=O)Cc3ccccc3)cc2CC1=O, the AC35 [1] was > 35 µM (inactive).
In the case of O=C(C[C@@H]1C[C@@H]2c3cc(NS(=O)(=O)c4ccc(F)cc4)ccc3O[C@@H]2[C@@H](CO)O1)NCc1ccc(Oc2ccccc2)cc1, the AC35 [1] is reported as 20.8 µM.
With Cc1cc(C(=O)Nc2ccc3c(c2)C(=O)N(C)[C@@H]2CC[C@@H](CC(=O)NCc4ccc(-c5ccccc5)cc4)O[C@H]2CO3)no1 the AC35 [1] was > 35 µM (inactive).
In the case of C[C@@H]1CN([C@H](C)CO)C(=O)c2c(c3ccccc3n2C)-c2ccccc2CO[C@@H]1CN(C)C(=O)Nc1ccc(F)cc1, the activity change, negative = viability loss ([2]; at 35 µM (top of the series)) is reported as 6.88% (inactive).
In the case of CC(C)(C)[S@@](=O)N1Cc2cc(C(=O)NCc3ccccc3F)nc(-c3cccc(-c4ccncc4)c3)c2[C@H]1CCO, the AC35 [1] is reported as > 35 µM (inactive).
For COc1cccc(S(=O)(=O)N(C)C[C@@H]2Oc3cc(C4=CCCCC4)ccc3S(=O)(=O)N([C@H](C)CO)C[C@H]2C)c1, the activity change, negative = viability loss ([2]; at 35 µM (top of the series)) was -0.785% (inactive).
With CC(C)NC(=O)N1[C@H](CO)[C@H](c2ccc(C#CC3CCCCC3)cc2)[C@@H]1C#N the activity change, negative = viability loss ([2]; at 35 µM (top of the series)) was -6.23% (inactive).
With C[C@H](NC(=O)C[C@@H]1C=C[C@H](NC(=O)Cc2ccccn2)[C@H](CO)O1)c1ccccc1 the activity change, negative = viability loss ([2]; at 30 µM (top of the series)) was 3.96% (inactive).
For COc1cccc(S(=O)(=O)N(C)C[C@H]2Oc3cc(C4=CCCCC4)ccc3S(=O)(=O)N([C@@H](C)CO)C[C@@H]2C)c1, the activity change, negative = viability loss ([2]; at 35 µM (top of the series)) was 9.06% (inactive).
For Cc1noc(C)c1S(=O)(=O)Nc1ccc2c(c1)C(=O)N([C@H](C)CO)C[C@@H](C)[C@@H](CN(C)Cc1ccc(C(F)(F)F)cc1)OCCCC[C@@H](C)O2, the activity change, negative = viability loss ([2]; at 35 µM (top of the series)) was -10.4% (inactive).
For COc1ccccc1C#Cc1ccc2c(c1)O[C@H](CN(C)Cc1cccnc1)[C@H](C)CN([C@@H](C)CO)S2(=O)=O, the activity change, negative = viability loss ([2]; at 35 µM (top of the series)) was -0.213% (inactive).
For O=C(C[C@H]1C[C@@H]2c3cc(NS(=O)(=O)c4ccc(F)cc4)ccc3O[C@@H]2[C@H](CO)O1)NC1CCCCC1, the activity change, negative = viability loss ([2]; at 35 µM (top of the series)) was 2.73% (inactive).
In the case of O=C(Nc1ccc(C(F)(F)F)cc1)Nc1ccc2c(c1)[C@@H]1C[C@H](CC(=O)N3CCc4ccccc4C3)O[C@H](CO)[C@@H]1O2, the activity change, negative = viability loss ([2]; at 35 µM (top of the series)) is reported as -11.3% (inactive).
In the case of C[C@@H]1CN([C@H](C)CO)S(=O)(=O)c2ccc(C#C[C@@H](C)O)cc2O[C@H]1CN(C)Cc1ccc(-c2ccccc2)cc1, the activity change, negative = viability loss ([2]; at 35 µM (top of the series)) is reported as -18.7% (inactive).
In the case of COc1ccccc1C#Cc1cnc2c(c1)C(=O)N([C@@H](C)CO)C[C@H](C)[C@@H](CN(C)C(=O)c1ccc3c(c1)OCO3)O2, the activity change, negative = viability loss ([2]; at 35 µM (top of the series)) is reported as 9.4% (inactive).
In the case of Cc1ccc(S(=O)(=O)N(C)C[C@H]2Oc3cc(C#Cc4ccncc4)ccc3S(=O)(=O)N([C@@H](C)CO)C[C@@H]2C)cc1, the AC35 [1] is reported as > 35 µM (inactive).
With C[C@@H]1CN([C@H](C)CO)C(=O)c2c(c3ccccc3n2C)-c2ccccc2CO[C@H]1CN(C)C(=O)Nc1ccc(F)cc1 the activity change, negative = viability loss ([2]; at 35 µM (top of the series)) was -13% (inactive).
